Reference: patent US20210278408A1, “METHODS OF TREATMENT OF CANCER WITH SUBSTITUTED PYRROLE AND PYRAZOLE COMPOUNDS AND DIAGNOSIS OF CANCERS SUSCEPTIBLE TO TREATMENT WITH SUBSTITUTED PYRROLE AND PYRAZOLE COMPOUNDS” (Bantam Pharmaceutical, LLC, priority 2018, published 2021)

System: 406 cancer cell lines, 73 blood tumor cell lines and 333 solid tumor cell lines
Assay: OmniScreen drug efficacy on cancer cell lines, fitted area under curve (AUC) of dose-response
Format: cell-based
Set-up: AUCs: unit not given beside the values
Description: Predictive biomarkers for genes indicating responsiveness to a therapeutic compound can be determined using a cell-based screening technique, such as that offered under the name OmniScreen™ (Crown Biosciences).
In one experimental study, predictive biomarkers were determined for Compound A197 efficacy on 406 cancer cell lines, 73 blood tumor cell lines and 333 solid tumor cell lines. Genomic data for the cell lines was downloaded from the Cancer Cell Line Encyclopedia Project (CCLE) website. Driver mutations were predicted on the Cancer Genome Interpreter Database; only driver mutations were used in the mutation related analysis.
Dose-response curves were fitted by the 4-parameter model:
in which top and bottom are the two asymptotes of the sigmoidal curve, EC50 is the relative IC50, and concentration x is in log−10 scale. To accommodate experimental errors, Bottom was allowed to go down to −20%, and Top was allowed to go up to 120%. The fitting error of a model is measured by
σECS0 is the standard error of EC50. In general, such fitting error should be less than 40% for a model to be considered acceptable. The fitted area under curve (AUC) is calculated by
where a=log(3, 10) and b=log(30000,10).

Cc1nn(-c2nc(-c3ccc(C(F)(F)F)cc3)c(SC(C)C)s2)c(C(=O)O)c1-c1cccc(F)c1 [Compound A197, 4-(3-fluorophenyl)-1-(5-(isopropylthio)-4-(4-(trifluoromethyl)phenyl)thiazol-2-yl)-3-methyl-1H-pyrazole-5-carboxylic acid]
AUCs (KHOS/NP, Bone): 3.37
AUCs (KP4, Pancreas): 2.84
IC50 (KP4, Pancreas): 0.52 µM
AUCs (KU812, Blood): 3.91
AUCs (KYSE-410, Esophagus): 3.51
AUCs (L-82, Blood): 2.94
AUCs (LN-229, Brain&Nerves): 3.59
AUCs (LNCaP clone FGC, Prostate): 2.48
AUCs (LS123, Colorectum): 4
AUCs (LS1034, Colorectum): 3.29
AUCs (MCF7, Breast): 3.76
AUCs (MDA-MB-415, Breast): 3.49
AUCs (MDA-MB-436, Breast): 3.33
AUCs (MDA-MB-453, Breast): 3.26
AUCs (ME-180, Uterus): 2.65
AUCs (MES-SA, Uterus): 2.67
AUCs (MES-SA/DX5, Uterus): 2.17
AUCs (MFE-296, Uterus): 3.24
AUCs (MIA PaCa-2, Pancreas): 3.15
AUCs (MKN1, Stomach/Gastric): 3.21
AUCs (MKN45, Stomach/Gastric): 3.54
AUCs (MKN74, Stomach/Gastric): 2.89
AUCs (MM.1S, Blood): 3.46
AUCs (MS751, Uterus/Cervix): 3.52
AUCs (NCI-H69, Lung): 3.75
AUCs (NCI-H146, Lung): 3.86
AUCs (NCI-H187, Lung): 2.89
AUCs (NCI-H209, Lung): 3.47
AUCs (NCI-H226, Lung): 2.98
AUCs (NCI-H292, Lung): 3.17
AUCs (NCI-H441, Lung): 3.85
AUCs (NCI-H446, Lung): 3.83
AUCs (NCI-H460, Lung): 3.13
AUCs (NCI-H522, Lung): 3.12
AUCs (NCI-H526, Lung): 3.6
AUCs (NCI-H596, Lung): 3.81
AUCs (NCI-H661, Lung): 3.43
AUCs (NCI-H727, Lung): 3.53
AUCs (NCI-H747, Large intestine/Colorectum): 3.19
AUCs (NCI-H929, Blood): 3.32
AUCs (NCI-H1048, Lung): 3.35
AUCs (NCI-H1563, Lung): 3.71
AUCs (NCI-H1581, Lung): 3.1
AUCs (NCI-H1648, Lung): 3.56
AUCs (NCI-H1650, Lung): 4.13
AUCs (NCI-H1666, Lung): 3.51
AUCs (NCI-H1688, Lung): 3.57
AUCs (NCI-H1781, Lung): 3.34
AUCs (NCI-H1838, Lung): 3.62
AUCs (NCI-H1915, Lung): 3.33
AUCs (NCI-H1975, Lung): 3.6
AUCs (NCI-H2009, Lung): 3.22
AUCs (NCI-H2052, Lung): 3.92
AUCs (NCI-H2087, Lung): 3.19
AUCs (NCI-H2452, Lung): 3.72
AUCs (NCI-N87, Stomach/Gastric): 3.09
AUCs (NUGC-3, Stomach/Gastric): 3.64
AUCs (NUGC-4, Stomach/Gastric): 3.11
AUCs (OCI-AML3, Blood/Leukemia): 3.62
IC50 (OCUM1, OCUM-1, Stomach/Gastric): 68.3 µM
AUCs (OCUM-1, Stomach/Gastric): 3.57
AUCs (OCUM-2D, Stomach/Gastric): 3.12
IC50 (OCUM-2D, Stomach/Gastric): 1.14 µM
AUCs (OCUM-2M, Stomach/Gastric): 2.88
IC50 (OCUM-2M, Stomach/Gastric): 0.848 µM
AUCs (OE19, Esophagus/gastric cardia): 3.44
IC50 (OSC19, OSC-19, Tongue): 34.5 µM
AUCs (OSC-19, Tongue): 3.85
AUCs (OVCAR-3, Ovary): 3.29
AUCs (OVCAR-8, Ovary): 3.05
AUCs (PANC-1, Pancreas): 3.13
AUCs (PC-3, Prostate): 3.82
IC50 (PL45, PL45, Pancreas): 0.993 µM
AUCs (PL45, Pancreas): 3.37
AUCs (RL95-2, Uterus): 2.63
AUCs (RPMI-2650, Nose): 3.04
AUCs (SCC-4, Tongue): 3.69
AUCs (SCC-9, Tongue): 3.31
AUCs (SCC-15, Tongue): 3.56
AUCs (SCC-25, Tongue): 3.29
AUCs (SCH, Stomach/Gastric): 3.48
AUCs (SF268, Brain&Nerves): 3.24
AUCs (SF-126, Brain&Nerves): 3.39
AUCs (SK-HEP-1, Liver): 3.05
AUCs (SK-MEL-5, Skin): 4.12
AUCs (SK-MEL-28, Skin): 4.18
AUCs (SK-OV-3, Ovary): 3.53
AUCs (SK-UT-1, Uterus): 3.67
AUCs (SNU-1, Stomach/Gastric): 3.25
AUCs (SNU-5, Stomach/Gastric): 3.11
AUCs (SNU-81, Colorectum): 3.54
IC50 (SNU-216, SNU-216, Stomach/Gastric): 124 µM
AUCs (SNU-216, Stomach/Gastric): 3.7
AUCs (SNU-354, Liver): 3.39
AUCs (SNU-423, Liver): 3.2
IC50 (SNU-484, SNU-484, Stomach/Gastric): 74.8 µM
AUCs (SNU-484, Stomach/Gastric): 3.64
IC50 (SNU-601, SNU-601, Stomach/Gastric): 0.331 µM
AUCs (SNU-601, Stomach/Gastric): 2.89
AUCs (SNU-620, Stomach/Gastric): 3.75
AUCs (SNU-638, Stomach/Gastric): 3.32
AUCs (SNU-668, Stomach/Gastric): 3.48
AUCs (SNU-719, Stomach/Gastric): 3.58
IC50 (SNU-719, Stomach/Gastric): 1320 µM
AUCs (SNU-C5, Large intestine/Colorectum): 3.5
AUCs (SW48, Colorectum): 3.74
AUCs (SW480, Colorectum): 3.62
IC50 (SW579, SW579, Thyroid): 50.5 µM
AUCs (SW579, Thyroid): 3.73
AUCs (SW626, Ovary): 3.89
AUCs (SW684, Soft tissue): 3.77
AUCs (SW756, Ovary): 3.75
AUCs (SW948, Colorectum): 3.37
AUCs (SW982, Soft tissue): 3.99
AUCs (SW1116, Colorectum): 3.82
AUCs (SW1271, Lung): 3.9
IC50 (SW1271, SW1271, Lung): 498 µM
AUCs (SW1990, Pancreas): 3.12
AUCs (T47D, Breast): 3.33
AUCs (T84, Colorectum): 3.57
AUCs (TE-1, Esophagus): 3.23
AUCs (TF-1, Blood): 3.24
AUCs (TJ905, Brain&Nerves): 3.68
AUCs (TT, Thyroid): 3.19
IC50 (TT, Thyroid): 2.17 µM
AUCs (U266B1, Blood): 3.41
AUCs (U-2 OS, Bone): 3.44
AUCs (UACC-812, Breast): 3.52
AUCs (UO.31, Kidney): 3.58
AUCs (WM-266-4, Skin): 3.87
AUCs (Y-79, Eye): 3.72
AUCs (YCC-1, Stomach/Gastric): 3.54
AUCs (YCC-2, Stomach/Gastric): 3.66
AUCs (YCC-6, Stomach/Gastric): 2.95
IC50 (YCC-6, Stomach/Gastric): 6.32 µM
AUCs (YCC-10, Stomach/Gastric): 3.64
IC50 (YCC-10, Stomach/Gastric): 412 µM
AUCs (YCC-11, Stomach/Gastric): 3.34
AUCs (ZR-75-30, Breast): 3.44
